Molecular target: unphosphorylated-BTK kinase domain (UP-BTK), GST-tagged human BTK (389-659aa) (Homo sapiens (Human), UniProt Q06187)
Assay: BTK kinase Lanthascreen binding assay
Conditions: pIC50 = negative log of the IC50 in molar; 60 minutes incubation, 50 nM Tracer 236
Method in brief: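 Measures how well compounds compete with a fluorescence-labelled tracer for binding to BTK in its unphosphorylated state. IC50 values were fitted and expressed as pIC50 (negative logarithm of the molar IC50).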

Sequence of unphosphorylated-BTK kinase domain (UP-BTK), GST-tagged human BTK (389-659aa) (Q06187 389-659): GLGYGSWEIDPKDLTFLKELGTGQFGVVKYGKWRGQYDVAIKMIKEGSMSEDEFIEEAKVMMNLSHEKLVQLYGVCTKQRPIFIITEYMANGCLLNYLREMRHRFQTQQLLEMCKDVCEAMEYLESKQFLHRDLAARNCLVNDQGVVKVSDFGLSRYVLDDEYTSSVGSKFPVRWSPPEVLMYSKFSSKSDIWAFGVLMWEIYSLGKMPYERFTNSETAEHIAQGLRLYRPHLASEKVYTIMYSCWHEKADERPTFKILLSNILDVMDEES

SMILES	BTK_I_binding pIC50
Cc1cc(Oc2ccccc2)ccc1N1C(=O)Nc2c(C(=O)N[C@H]3CCCOC3)sc3nccc1c23 [Example 67, (S)-5-(2-Methyl-4-phenoxyphenyl)-4-oxo-N-(tetrahydro-2H-pyran-3-yl)-4,5-dihydro-3H-1-thia-3,5,8-triazaacenaphthylene-2-carboxamide]	7.5
C=CC(=O)N1CCC[C@@H](NC(=O)c2sc3nccc4c3c2NC(=O)N4c2c(F)cc(Oc3ccccc3)cc2F)C1 [Example 69, (R)—N-(1-Acryloylpiperidin-3-yl)-5-(2,6-difluoro-4-phenoxyphenyl)-4-oxo-4,5-dihydro-3H-1-thia-3,5,8-triazaacenaphthylene-2-carboxamide]	7.7
Cc1cc(Oc2cccc3ccoc23)ccc1N1C(=O)Nc2c(C(=O)N[C@@H]3CCCN(C)C3)sc3nccc1c23 [Example 70, (R)-5-(4-(Benzofuran-7-yloxy)-2-methylphenyl)-N-(1-methylpiperidin-3-yl)-4-oxo-4,5-dihydro-3H-1-thia-3,5,8-triazaacenaphthylene-2-carboxamide]	7.1
Cc1c(N2C(=O)Nc3c(C(=O)N[C@@H]4CCCOC4)sc4nccc2c34)ccc(Oc2ccccc2)c1F [Example 71, (R)-5-(3-Fluoro-2-methyl-4-phenoxyphenyl)-4-oxo-N-(tetrahydro-2H-pyran-3-yl)-4,5-dihydro-3H-1-thia-3,5,8-triazaacenaphthylene-2-carboxamide]	7.5
COCCC(=O)N1CC[C@@H](NC(=O)c2sc3nccc4c3c2NC(=O)N4c2ccc(Oc3ccccc3)cc2C)C1 [Example 72, (R)—N-(1-(3-Methoxypropanoyl)pyrrolidin-3-yl)-5-(2-methyl-4-phenoxyphenyl)-4-oxo-4,5-dihydro-3H-1-thia-3,5,8-triazaacenaphthylene-2-carboxamide]	7.4
COc1ccccc1Oc1ccc(N2C(=O)Nc3c(C(=O)N[C@@H]4CCCN(C)C4)sc4nccc2c34)c(C)c1 [Example 73, (R)-5-(4-(2-Methoxyphenoxy)-2-methylphenyl)-N-(1-methylpiperidin-3-yl)-4-oxo-4,5-dihydro-3H-1-thia-3,5,8-triazaacenaphthylene-2-carboxamide]	6.8
CCN1CCC[C@@H](NC(=O)c2sc3nccc4c3c2NC(=O)N4c2ccc(Oc3ccccc3)cc2C)C1 [Example 74, (R)—N-(1-Ethylpiperidin-3-yl)-5-(2-methyl-4-phenoxyphenyl)-4-oxo-4,5-dihydro-3H-1-thia-3,5,8-triazaacenaphthylene-2-carboxamide]	6.9
Cc1cc(Oc2ccccc2)ccc1N1C(=O)Nc2c(C(=O)N[C@@H]3CCCN(C(=O)CCO)C3)sc3nccc1c23 [Example 75, (R)—N-(1-(3-Hydroxypropanoyl)piperidin-3-yl)-5-(2-methyl-4-phenoxyphenyl)-4-oxo-4,5-dihydro-3H-1-thia-3,5,8-triazaacenaphthylene-2-carboxamide]	7.2
CCc1ccccc1Oc1ccc(N2C(=O)Nc3c(C(=O)N[C@@H]4CCCN(C(=O)/C(C#N)=C/C5CC5)C4)sc4nccc2c34)c(C)c1 [Example 76, (R,E)-N-(1-(2-Cyano-3-cyclopropylacryloyl)piperidin-3-yl)-5-(4-(2-ethylphenoxy)-2-methylphenyl)-4-oxo-4,5-dihydro-3H-1-thia-3,5,8-triazaacenaphthylene-2-carboxamide]	6.8
C=CC(=O)N1CC[C@@H](NC(=O)c2sc3nccc4c3c2NC(=O)N4c2ccc(Oc3ccccc3)c(C)c2C)C1 [Example 77, (R)—N-(1-Acryloylpyrrolidin-3-yl)-5-(2,3-dimethyl-4-phenoxyphenyl)-4-oxo-4,5-dihydro-3H-1-thia-3,5,8-triazaacenaphthylene-2-carboxamide]	6.9
